In patent US20220273739A1, “COMBINATION DRUG FOR TREATING MALIGNANT TUMOR, PHARMACEUTICAL COMPOSITION FOR TREATING MALIGNANT TUMOR, AND PHARMACEUTICAL COMPOSITION FOR MALIGNANT TUMOR TREATMENT” (priority 2019, published 2022):

System: murine squamous cell carcinoma (SCC VII)
Assay: Antitumor effect (tumor size) in both-side side-abdomen implanted SCC VII tumor-bearing mice
Assay type: in vivo, C3H/He Slc mice
Conditions: for antitumor effect (tumor size), tumor with administration of the drug (treated group): FIG. 1A, intratumoral administration on Day 0, 3, 6, compared to MOCK (saline solution), C-REV 1×10^6 pfu/100 μl, cGAMP 20 μg/100 μl; for antitumor effect (tumor size), tumor spaced apart from the tumor with administration of the drug (non-treated group): FIG. 1B / FIG. 2, tumor on opposite side of the abdomen received saline solution only, drug given to the other tumor on Day 0, 3, 6
Description: Six-week-old female C3H/He Slc mice (purchased from Chubu Kagaku Shizai Co., Ltd.) were used as mice. A tumor of murine squamous cell carcinoma (SCC VII; given by professor Shin-ichiro Masunaga, Kyoto University Institute for Integrated Radiation and Nuclear Science) was cut into 2 mmcubes, and two of the cubes were implanted under the skin on both sides of the abdomen of the mice by a tumor implantation needle (both-side side-abdomen implanted model). When the size of the tumor reached the size of 100 mm^3, grouping was performed. Although differing among the mice, one tumor end and the other tumor end were spaced apart from each other by about 10 mm.
First medicine: C-REV was suspended in a saline solution to obtain a concentration of 1×10^6 pfu/100 μl.
Second medicine: 2′3′-cGAMP (No. tlrl-nacga23 by Invivogen) was dissolved and suspended in a saline solution to obtain a concentration of 20 μg/100 μl.
Day 0: The first medicine of 100 μl was administered to a tumor (treated group) on one side of the abdomen. Further, a saline solution of 100 μl was administered to a tumor (non-treated group) on the other side of the abdomen. Day 3: The second medicine of 100 μl was administered to a tumor (treated group) on one side of the abdomen. Further, a saline solution of 100 μl was administered to a tumor (non-treated group) on the other side of the abdomen. Day 6: The second medicine of 100 μl was administered to a tumor (treated group) on one side of the abdomen. Further, a saline solution of 100 μl was administered to a tumor (non-treated group) on the other side of the abdomen.
The tumor size was calculated from multiplication of the longer diameter by the shorter diameter by the shorter diameter by 1/2 of a tumor.
(§1) The experiment was performed in the same procedure as for Example 1 except for administration of a saline solution of 100 μl on Day 3 and Day 6 instead of the administration of the second medicine to the treated group.
as §1, with “Example 1 except for administration of the second medicine on Day 0 instead of the administration of the first medicine to the treated group and except for” for “Example 1 except for”
as §1, with “Example 1 except for administration of a saline solution of 100 μl on Day 0 instead of the administration of the first medicine to the treated group and except for” for “Example 1 except for”
The experiment was performed in the same procedure as for Example 1 except for use of the hrR3 instead of the C-REV as the first medicine. […]

Molecule | antitumor effect (tumor size), tumor with administration of the drug (treated group) | antitumor effect (tumor size), tumor spaced apart from the tumor with administration of the drug (non-treated group)
Nc1nc2c(ncn2[C@@H]2O[C@@H]3COP(=O)(O)O[C@H]4[C@@H](O)[C@H](n5cnc6c(N)ncnc65)O[C@@H]4COP(=O)(O)O[C@@H]2[C@@H]3O)c(=O)[nH]1 [cGAMP, 2′3′-cyclic GMP-AMP] | an antitumor effect was developed | almost no antitumor effect
Canerpaturev [C-REV] | an antitumor effect was developed | almost no antitumor effect
